Assay results: patent publication US12509437B2, “Substituted thiophene carboxamides and derivatives thereof as microbicides” (Bayer Aktiengesellschaft, priority 2019, dated 2025)
Like-named read-outs stand apart in the source and are kept apart here.

Experiments:
[1] = tested on: Xanthomonas campestris pv. campestris; assay: In vivo preventive test on Xanthomonas campestris pv. campestris (black rot on cabbage); conditions: Xanthomonas campestris, sprayed 72 hours before inoculation, evaluated 8 or 10 days after inoculation, read-out: efficacy; for pest or weed control at 125 ppm: 125 ppm of active ingredient; for pest or weed control at 31 ppm: 31 ppm of active ingredient; for pest or weed control at 500 ppm: 500 ppm of active ingredient
Protocol: (§1) The tested active ingredients were prepared by homogenization in a mixture of acetone/Dimethyl sulfoxide/Tween®, and then diluted with water to obtain the desired active material concentration.
(§2) The young plants of cabbage were treated by spraying the active ingredient prepared as described above. Control plants were treated only with an aqueous solution of acetone/Dimethyl sulfoxide/Tween®.
After 72 hours, the plants were contaminated by spraying the leaves with an aqueous bacteria suspension of Xanthomonas campestris pv. campestris. The contaminated cabbage plants were incubated for 8 or 10 days at 27° C. at 95% relative humidity.
The test was evaluated 8 or 10 days after the inoculation. 0% means an efficacy which corresponds to that of the control plants while an efficacy of 100% means that no disease was observed.

[2] = LogP by HPLC on reversed phase columns (EEC directive 79/831 Annex V.A8); type: physicochemical; conditions: reversed phase HPLC columns
Summary of the method: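 LogP derived from retention time, interpolated linearly between bracketing alkan-2-one standards (3 to 16 carbons). Where several values exist for one method, all are listed with "+"; UV spectra 200–400 nm at peak maxima gave lambda-max.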

[3] = tested on: Colletotrichum lindemuthianum; assay: Colletotrichum lindemuthianum in vitro cell test; type: cell-based; conditions: 144 h, 6 days incubation, read-out: efficacy (inhibition of fungal growth; no direct activity); for inhibition at 5 ppm: 5 ppm of active ingredient; for inhibition at 20 ppm: 20 ppm of active ingredient
Protocol: (§3) • Solvent: DMSO • Culture medium: 14.6 g anhydrous D-glucose (VWR), 7.1 g Mycological Peptone (Oxoid), 1.4 g granulated Yeast Extract (Merck), QSP 1 liter • Inoculum: spores suspension Fungicides were solubilized in DMSO and the solution used to prepare the required range of concentrations. The final concentration of DMSO used in the assay was ≤[…]1%. A spore suspension of C. lindemuthianum was prepared and diluted to the desired spore density. Fungicides were evaluated for their ability to inhibit spores germination and mycelium growth in liquid culture assay. The compounds were added in the desired concentration to the culture medium with spores. After 6 days incubation, fungi-toxicity of compounds was determined by spectrometric measurement of mycelium growth. Inhibition of fungal growth was determined by comparing the absorbance values in wells containing the fungicides with the absorbance in control wells without fungicides.

[4] = tested on: Xanthomonas campestris pv. campestris; assay: Xanthomonas campestris pv. campestris in vitro cell test; type: cell-based; conditions: 24 h of incubation, read-out: efficacy (inhibition of bacteria growth; no direct activity); for inhibition at 5 ppm: 5 ppm of active ingredient; for inhibition at 20 ppm: 20 ppm of active ingredient
Protocol: (§4) • Solvent: DMSO • Culture medium: LB broth medium (Luria Broth Miller) Sigma • Inoculum: bacteria suspension Compounds were solubilized in DMSO and the solution used to prepare the required range of concentrations. The final concentration of DMSO used in the assay was ≤1%. Inoculum was prepared from a pre-culture of bacteria grown in liquid medium and diluted to the desired optical density (OD). Compounds were evaluated for their ability to inhibit bacteria growth in liquid culture assay. The compounds were added in the desired concentrations to culture medium containing the bacteria suspension. After 24 h of incubation, the efficacy of compounds was determined by spectrometric measurement of bacteria growth. Inhibition was determined by comparing the absorbance values in wells containing the compounds with the absorbance in control wells without active ingredients.

Uromyces appendiculatus = assay: In vivo preventive test on Uromyces appendiculatus (bean rust); conditions: 240 h, sprayed 72 hours before inoculation, evaluated 10 days after inoculation, read-out: efficacy; for pest or weed control at 125 ppm: 125 ppm of active ingredient; for pest or weed control at 500 ppm: 500 ppm of active ingredient; for pest or weed control at 31 ppm: 31 ppm of active ingredient
Protocol: as §1
The young plants of bean were treated by spraying the active ingredient prepared as described above. Control plants were treated only with an aqueous solution of acetone/Dimethyl sulfoxide/Tween®.
After 72 hours, the plants were contaminated by spraying the leaves with an aqueous suspension of Uromyces appendiculatus spores. The contaminated bean plants were incubated for 24 hours at 20° C. and at 100% relative humidity and then for 9 days at 20° C. and at 70-80% relative humidity.
The test was evaluated 10 days after the inoculation. 0% means an efficacy which corresponds to that of the control plants while an efficacy of 100% means that no disease was observed.

[5] = tested on: Pseudomonas syringae pv. tomato; assay: Pseudomonas syringae pv. tomato in vitro cell test; type: cell-based; conditions: 20 ppm of active ingredient, 24 h of incubation, read-out: efficacy (inhibition of bacteria growth; no direct activity)
Protocol: as §4

Peronospora parasitica = assay: In vivo preventive test on Peronospora parasitica (Crucifer downy mildew) on cabbage; conditions: Hyaloperonospora parasitica, 120 h, sprayed 72 hours before inoculation, evaluated 5 days after inoculation, read-out: efficacy; for pest or weed control at 125 ppm: 125 ppm of active ingredient; for pest or weed control at 500 ppm: 500 ppm of active ingredient; for pest or weed control at 31 ppm: 31 ppm of active ingredient
Protocol: as §1, §2
After 72 hours, the plants were contaminated by spraying the leaves with an aqueous suspension of Peronospora parasitica spores. The contaminated cabbage plants were incubated for 5 days at 20° C. and at 100% relative humidity.
The test was evaluated 5 days after the inoculation. 0% means an efficacy which corresponds to that of the control plants while an efficacy of 100% means that no disease was observed.

Alternaria alternata = Alternaria alternata in vitro cell test; type: cell-based; conditions: 120 h, 5 days incubation, read-out: efficacy (inhibition of fungal growth; no direct activity); for inhibition at 5 ppm: 5 ppm of active ingredient; for inhibition at 20 ppm: 20 ppm of active ingredient
Protocol: as §3, with “of A. alternata” for “of C. lindemuthianum”, “inhibit spore” for “inhibit spores”, “After 5” for “After 6”

[6] = tested on: salicylate responsive promoter sequence of the PR1 (pathogenesis-related protein I) gene (AT2G14610); assay: Induction of defense gene expression in Arabidopsis thaliana (PR1 promoter-GFP reporter plants); type: in vivo; conditions: 72 h, 3rd day after spraying, mock treated leaves set as 1.00, read-out: relative fluorescence value
Protocol: Arabidopsis thaliana reporter plants containing the coding sequence of a green fluorescent protein (GFP) linked to the salicylate responsive promoter sequence of the PR1 (pathogenesis-related protein I) gene (AT2G14610) were grown for five days and then sprayed with compounds. On the 3rd day after spraying, plant fluorescence was assessed with a MacroFluo instrument from Leica Microsystems (Wetzlar, Germany). Fluorescences were quantified with the Meta-Morph Microscopy Automation & Image Analysis Software (Molecular Devices, Sunnyvale, Calif., United States). Background fluorescence in mock treated leaves was set as 1.00.

| chromatographic logP ([2]; method [a]) | chromatographic logP ([2]; preparation examples, method not indicated, read-out: Log P) | Compound | pest or weed control at 125 ppm [1] [%] | inhibition at 5 ppm [3] [%] | inhibition at 20 ppm [3] [%] | inhibition at 5 ppm [4] [%] | inhibition at 20 ppm [4] [%] | pest or weed control at 125 ppm (Uromyces appendiculatus) [%] | pest or weed control at 500 ppm (Uromyces appendiculatus) [%] | inhibition at 20 ppm [5] [%] | pest or weed control at 125 ppm (Peronospora parasitica) [%] | pest or weed control at 500 ppm (Peronospora parasitica) [%] | inhibition at 5 ppm (Alternaria alternata) [%] | fold induction at 300 ppm [6] | pest or weed control at 31 ppm [1] [%] | pest or weed control at 31 ppm (Uromyces appendiculatus) [%] | pest or weed control at 31 ppm (Peronospora parasitica) [%] | inhibition at 20 ppm (Alternaria alternata) [%] | fold induction at 75 ppm [6] | pest or weed control at 500 ppm [1] [%] |
| --- | --- | --- | --- | --- | --- | --- | --- | --- | --- | --- | --- | --- | --- | --- | --- | --- | --- | --- | --- | --- |
| 3.5 | – | COC(=O)C1(NC(=O)c2sc(Cl)c(Cl)c2C)CCC1 [I.171] | 70 to 79 | ≤ 30 | – | ≤ 30 | ≤ 30 | 90 to 100 | – | ≤ 30 | 90 to 100 | – | ≤ 30 | > 2 | – | 80 to 89 | 90 to 100 | ≤ 30 | > 2 | – |
| 3.17 | – | COC(=O)CC[C@H](NC(=O)c1sc(Br)c(Br)c1C)C(=O)OC [I.136] | – | ≤ 30 | ≤ 30 | ≤ 30 | ≤ 30 | 90 to 100 | 90 to 100 | ≤ 30 | 90 to 100 | 90 to 100 | ≤ 30 | > 2 | – | 90 to 100 | 80 to 89 | ≤ 30 | > 2 | – |
| – | 3.67 | CCSC(=O)C1(NC(=O)c2sc(Cl)c(Cl)c2C)CC1 [I.049, S-ethyl 1-{[(4,5-dichloro-3-methyl-2-thienyl)carbonyl]amino}cyclopropanecarbothioate] | – | ≤ 30 | – | ≤ 30 | ≤ 30 | 90 to 100 | 80 to 89 | ≤ 30 | 90 to 100 | 90 to 100 | ≤ 30 | > 2 | 80 to 89 | 70 to 79 | 90 to 100 | – | > 2 | 80 to 89 |
| 3.46 | – | CCOC(=O)C(COC)NC(=O)c1sc(Br)c(Br)c1C (stereo not shown) [I.034] | – | ≤ 30 | – | ≤ 30 | ≤ 30 | – | 90 to 100 | ≤ 30 | – | – | ≤ 30 | > 2 | – | – | – | ≤ 30 | – | 80 to 89 |

Continued, molecule first:

| Compound | chromatographic logP ([2]; method [a]) | chromatographic logP ([2]; preparation examples, method not indicated, read-out: Log P) | pest or weed control at 125 ppm [1] [%] | inhibition at 5 ppm [3] [%] | inhibition at 20 ppm [3] [%] | inhibition at 5 ppm [4] [%] | inhibition at 20 ppm [4] [%] | pest or weed control at 125 ppm (Uromyces appendiculatus) [%] | pest or weed control at 500 ppm (Uromyces appendiculatus) [%] | inhibition at 20 ppm [5] [%] | pest or weed control at 125 ppm (Peronospora parasitica) [%] | pest or weed control at 500 ppm (Peronospora parasitica) [%] | inhibition at 5 ppm (Alternaria alternata) [%] | fold induction at 300 ppm [6] | pest or weed control at 31 ppm [1] [%] | pest or weed control at 31 ppm (Uromyces appendiculatus) [%] | pest or weed control at 31 ppm (Peronospora parasitica) [%] | inhibition at 20 ppm (Alternaria alternata) [%] | fold induction at 75 ppm [6] | pest or weed control at 500 ppm [1] [%] |
| --- | --- | --- | --- | --- | --- | --- | --- | --- | --- | --- | --- | --- | --- | --- | --- | --- | --- | --- | --- | --- |
| COC(=O)[C@H](CCCNC(=N)N)NC(=O)c1sc(Br)c(Br)c1C [I.035] | 1.74 | – | 80 to 89 | ≤ 30 | ≤ 30 | ≤ 30 | ≤ 30 | 80 to 89 | 80 to 89 | ≤ 30 | 70 to 79 | 80 to 89 | ≤ 30 | > 2 | – | – | – | – | – | – |
| CCOC(=O)C(NC(=O)c1sc(Cl)c(Cl)c1C)C(F)(F)F (stereo not shown) [I.164] | 4.07 | – | – | ≤ 30 | ≤ 30 | ≤ 30 | ≤ 30 | 90 to 100 | – | ≤ 30 | 90 to 100 | ≥ 90 | ≤ 30 | > 2 | 80 to 89 | 90 to 100 | 90 to 100 | ≤ 30 | > 2 | – |
| Cc1c(C(=O)NC(C)(C)C(=O)O)sc(Cl)c1Cl [I.174] | 2.43 | – | 70 to 79 | ≤ 30 | ≤ 30 | ≤ 30 | ≤ 30 | 90 to 100 | – | ≤ 30 | 90 to 100 | – | ≤ 30 | > 2 | – | 90 to 100 | – | ≤ 30 | > 2 | – |
| COC(=O)C1(NC(=O)c2sc(Br)c(Br)c2C)CSC1 [I.015] | 3.31 | – | – | ≤ 30 | ≤ 30 | ≤ 30 | ≤ 30 | – | 90 to 100 | ≤ 30 | 90 to 100 | 90 to 100 | ≤ 30 | > 2 | – | 90 to 100 | 90 to 100 | – | > 2 | – |
| Cc1c(C(=O)NC(CC(N)=O)C(=O)O)sc(Br)c1Br (stereo not shown) [I.076] | 1.73 | – | – | ≤ 30 | ≤ 30 | ≤ 30 | ≤ 30 | 80 to 89 | 90 to 100 | ≤ 30 | 90 to 100 | 90 to 100 | ≤ 30 | > 2 | 70 to 79 | – | – | ≤ 30 | – | – |
